These compounds were tested against T1, JNK3 (Homo sapiens, UniProt P53779) (assay: Kinase panel screening, single dose 10 μM, in duplicate: JNK3). Settings: read-out: inhibitory activity on JNK3.
Assay type: biochemical
Protocol: (§1) Next, we used kinase panel screening in duplicate for compound 7a over 38 different kinases at a single-dose concentration of 10 μM (Table 2). The compound was indeed a selective JNK3 inhibitor with an excellent selectivity profile.

T1 sequence (P53779 whole entry): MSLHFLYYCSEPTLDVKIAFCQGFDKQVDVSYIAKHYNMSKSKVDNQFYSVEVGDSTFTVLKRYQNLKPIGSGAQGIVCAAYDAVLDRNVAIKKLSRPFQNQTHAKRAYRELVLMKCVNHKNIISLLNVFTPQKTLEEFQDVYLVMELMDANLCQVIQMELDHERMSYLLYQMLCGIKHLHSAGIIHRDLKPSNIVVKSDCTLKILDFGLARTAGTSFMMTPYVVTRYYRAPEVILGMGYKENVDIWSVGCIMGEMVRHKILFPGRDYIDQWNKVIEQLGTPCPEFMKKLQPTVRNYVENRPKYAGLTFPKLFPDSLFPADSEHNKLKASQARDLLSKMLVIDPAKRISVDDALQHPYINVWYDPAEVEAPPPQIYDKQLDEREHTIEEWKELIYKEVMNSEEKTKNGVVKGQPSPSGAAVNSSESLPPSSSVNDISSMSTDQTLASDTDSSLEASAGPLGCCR

inhibition at 10 µM [%] | Structure (SMILES)
90 | N#CCc1cc(-c2ccc(Cl)c(Cl)c2)n(-c2ccnc(N[C@H]3CCCN(C(=O)C4CC4)C3)n2)n1 [7a]

Each compound was assayed against T2, GSK3β (Homo sapiens, UniProt P49841) (assay: GSK3β enzymatic activity (IC50), Reaction Biology Kinase HotSpot). Settings: Table 2, Kinase HotSpot service; read-out: Compound IC50* on GSK3β.
T2 construct: purchased Reaction Biology Corp. (Kinase HotSpot service)
Assay type: biochemical

T2 sequence (P49841 whole entry): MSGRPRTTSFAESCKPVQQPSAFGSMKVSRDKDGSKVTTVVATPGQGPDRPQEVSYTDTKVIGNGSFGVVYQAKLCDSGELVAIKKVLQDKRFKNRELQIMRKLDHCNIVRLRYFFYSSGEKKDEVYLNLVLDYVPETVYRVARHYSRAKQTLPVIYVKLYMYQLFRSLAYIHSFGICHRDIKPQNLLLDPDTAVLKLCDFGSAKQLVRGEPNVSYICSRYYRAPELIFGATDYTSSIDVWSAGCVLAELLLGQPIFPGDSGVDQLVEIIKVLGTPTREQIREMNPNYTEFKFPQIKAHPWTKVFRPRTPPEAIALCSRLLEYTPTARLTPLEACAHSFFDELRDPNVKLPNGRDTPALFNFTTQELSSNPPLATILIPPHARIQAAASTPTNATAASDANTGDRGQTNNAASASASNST

IC50 [µM] | Structure (SMILES)
3.96 | N#CCc1cc(-c2ccc(Cl)c(Cl)c2)n(-c2ccnc(N[C@H]3CCCN(C(=O)C4CC4)C3)n2)n1 [7a]

Same assay, conditions: ratio of IC50 GSK3β / JNK3

selectivity for JNK3 over GSK3β in terms of IC50 | Structure (SMILES)
six fold selective | N#CCc1cc(-c2ccc(Cl)c(Cl)c2)n(-c2ccnc(N[C@H]3CCCN(C(=O)C4CC4)C3)n2)n1 [7a]

Each compound was assayed on 38 selected protein kinases (assay: Kinase panel screening, single dose 10 μM, in duplicate: other kinases of the 38-kinase panel). Settings: not given.
Assay type: biochemical
Protocol: as §1

inhibition activity for most other kinases except GSK3β | Structure (SMILES)
less than 20% | N#CCc1cc(-c2ccc(Cl)c(Cl)c2)n(-c2ccnc(N[C@H]3CCCN(C(=O)C4CC4)C3)n2)n1 [7a]

These compounds were tested against T1, JNK3 (assay: JNK3 enzymatic inhibitory activity (IC50)). Settings: not given.
Assay type: biochemical
Source text: In an effort to reduce the molecular weight, the piperidine ring was diversified into pyrrolidine and azetidine with less carbon atoms.

Structure (SMILES) | IC50 [µM]
N#CCc1cc(-c2ccc(Cl)c(Cl)c2)n(-c2ccnc(N[C@@H]3CCN(C(=O)C4CC4)C3)n2)n1 [8a, (R)-2-(1-(2-((1-(cyclopropanecarbonyl)pyrrolidin-3-yl)amino)pyrimidin-4-yl)-5-(3,4-dichlorophenyl)-1H-pyrazol-3-yl)acetonitrile] | 0.227
N#CCc1cc(-c2ccc(Cl)c(Cl)c2)n(-c2ccnc(N[C@H]3CCN(C(=O)C4CC4)C3)n2)n1 [9a] | 3.11

Same assay, conditions: enzymatic activity, Table 1; read-out: JNK3 IC50

Structure (SMILES) | IC50 [µM]
N#CCc1cc(-c2ccc3c(c2)OCO3)n(-c2ccnc(N[C@H]3CCCN(C(=O)C4CC4)C3)n2)n1 [7c] | 4.6
N#CCc1cc(-c2ccc3ccccc3c2)n(-c2ccnc(N[C@H]3CCN(C(=O)C4CC4)C3)n2)n1 [9b] | 2.9
N#CCc1cc(-c2ccc3ccccc3c2)n(-c2ccnc(N[C@@H]3CCN(C(=O)C4CC4)C3)n2)n1 [8b] | 0.361
N#CCc1cc(-c2ccc3ccccc3c2)n(-c2ccnc(N[C@H]3CCCN(C(=O)C4CC4)C3)n2)n1 [7b] | 0.824
N#CCc1cc(-c2ccc3c(c2)CCO3)n(-c2ccnc(N[C@@H]3CCN(C(=O)C4CC4)C3)n2)n1 [8d] | 4.42
N#CCc1cc(-c2ccc(Cl)c(Cl)c2)n(-c2ccnc(N[C@H]3CCCN(C(=O)C4CC4)C3)n2)n1 [7a] | 0.635
N#CCc1cc(-c2cccc([N+](=O)[O-])c2)n(-c2ccnc(N[C@@H]3CCN(C(=O)C4CC4)C3)n2)n1 [8e] | > 10
N#CCc1cc(-c2ccc3c(c2)CCO3)n(-c2ccnc(N[C@H]3CCCN(C(=O)C4CC4)C3)n2)n1 [7d] | 7.9
N#CCc1cc(-c2ccc3c(c2)OCO3)n(-c2ccnc(N[C@@H]3CCN(C(=O)C4CC4)C3)n2)n1 [8c] | 2.18
N#CCc1cc(-c2ccc3c(c2)OCO3)n(-c2ccnc(N[C@H]3CCN(C(=O)C4CC4)C3)n2)n1 [9c] | 8.57
N#CCc1cc(-c2ccc([N+](=O)[O-])cc2)n(-c2ccnc(N[C@@H]3CCN(C(=O)C4CC4)C3)n2)n1 [8f] | 7.89
N#CCc1cc(-c2ccc([N+](=O)[O-])cc2)n(-c2ccnc(N[C@H]3CCCN(C(=O)C4CC4)C3)n2)n1 [7f] | > 10
N#CCc1cc(-c2ccc3c(c2)CCO3)n(-c2ccnc(N[C@H]3CCN(C(=O)C4CC4)C3)n2)n1 [9d] | 3.25

Results, then the compound that gave them:

IC50 [µM] | Structure (SMILES)
5.58 | N#CCc1cc(-c2ccc3c(c2)OCO3)n(-c2ccnc(NC3CN(C(=O)C4CC4)C3)n2)n1 [10c]
1.46 | NC(=O)Cc1cc(-c2ccc(Cl)c(Cl)c2)n(-c2ccnc(N[C@H]3CCCN(C(=O)C4CC4)C3)n2)n1 [11a]
2.84 | N#CCc1cc(-c2ccc(Cl)c(Cl)c2)n(-c2ccnc(NC3CN(C(=O)C4CC4)C3)n2)n1 [10a]
2.07 | N#CCc1cc(-c2ccc3ccccc3c2)n(-c2ccnc(NC3CN(C(=O)C4CC4)C3)n2)n1 [10b]
0.903 | COC(=O)Cc1cc(-c2ccc(Cl)c(Cl)c2)n(-c2ccnc(N[C@H]3CCCN(C(=O)C4CC4)C3)n2)n1 [12a]
